Laboratory results: patent US20240024273A1, “TOPICAL ADMINISTRATION OF 2-(DIETHYLAMINO)ETHYL 2-(4-ISOBUTYLPHENYL)PROPRIONATE FOR TREATMENT OF DISEASES” (TECHFIELDS PHARMA CO., LTD., priority 2020, published 2024)

System: Subjects with Osteoarthritis of the Knee
Test: Second Phase 2 study: safety (treatment-emergent adverse events)
Assay type: in vivo, human
Conditions: BID
Source text: Safety assessments will be performed at each visit and will include assessment of AEs, vital signs (blood pressure, pulse rate, and oral temperature), clinical laboratories, physical examination, skin irritation, and electrocardiograms (ECGs) as indicated in the study flow chart, Table 47.
Safety assessments will include AEs, vital signs (blood pressures, pulse rate, and oral temperature), clinical laboratories, physical examination, skin irritation, and ECGs at various time points during the study as indicated in the study flow chart.
Adverse events of interest include: local skin reactions around the treated knee(s), upper stomach pain, GI bleeding, serious cardiovascular side effects (e.g., thrombotic events, myocardial infarction, or stroke), jaundice, elevated liver function tests, and nausea.
Safety analyses will be conducted on the SAS. Safety parameters will be listed and summarized using standard descriptive statistics, as appropriate. No formal statistical analyses are planned.

[1] = moderate adverse events, 4.375 mg/knee, N = 71
[2] = moderate adverse events, 8.75 mg/knee, N = 70
[3] = possibly, probably, or definitely related to study drug, 4.375 mg/knee, N = 71
[4] = possibly, probably, or definitely related to study drug, 8.75 mg/knee, N = 70
[5] = possibly, probably, or definitely related to study drug, 17.5 mg/knee, N = 70

CCN(CC)CCOC(=O)C(C)c1ccc(CC(C)C)cc1 (stereo not shown) [2-(diethylamino)ethyl 2-(4-isobutylphenyl)propionate]
1: Gastroenteritis: subjects with adverse events [1] | Gastroesophageal reflux disease: number of adverse events [1] | Gastroesophageal reflux disease: subjects with adverse events [1] | Upper Respiratory Tract Infection: number of adverse events [1] | Upper Respiratory Tract Infection: subjects with adverse events [1] | Abdominal Pain Upper: number of adverse events [3] | Abdominal Pain Upper: subjects with adverse events [3] | Administration Site Conditions: number of adverse events [3] | Administration Site Conditions: subjects with adverse events [3] | Alanine Aminotransferase Increased: number of adverse events [3] | Alanine Aminotransferase Increased: subjects with adverse events [3] | Application Site Irritation: number of adverse events [3] | Application Site Irritation: subjects with adverse events [3] | Headache: number of adverse events [3] | Headache: subjects with adverse events [3] | Abdominal Pain Upper: number of adverse events [4] | Abdominal Pain Upper: subjects with adverse events [4] | Administration Site Conditions: number of adverse events [4] | Administration Site Conditions: subjects with adverse events [4] | Alanine Aminotransferase Increased: number of adverse events [4] | Alanine Aminotransferase Increased: subjects with adverse events [4] | Application Site Irritation: number of adverse events [4] | Application Site Irritation: subjects with adverse events [4] | Throat Irritation: number of adverse events [4] | Throat Irritation: subjects with adverse events [4] | Abdominal Discomfort: number of adverse events [5] | Abdominal Discomfort: subjects with adverse events [5] | Abdominal Pain Upper: subjects with adverse events [5] | Application Site Irritation: number of adverse events [5] | Application Site Irritation: subjects with adverse events [5] | Aspartate Aminotransferase Increased: number of adverse events [5] | Aspartate Aminotransferase Increased: subjects with adverse events [5] | Dizziness: number of adverse events [5] | Dizziness: subjects with adverse events [5] | Headache: number of adverse events [5] | Headache: subjects with adverse events [5]
1.4%: Gastroesophageal reflux disease: percentage of subjects with adverse events [1] | Upper Respiratory Tract Infection: percentage of subjects with adverse events [1] | Upper Respiratory Tract Infection: percentage of subjects with adverse events [2] | Abdominal Pain Upper: percentage of subjects with adverse events [3] | Administration Site Conditions: percentage of subjects with adverse events [3] | Alanine Aminotransferase Increased: percentage of subjects with adverse events [3] | Application Site Irritation: percentage of subjects with adverse events [3] | Headache: percentage of subjects with adverse events [3] | Abdominal Pain Upper: percentage of subjects with adverse events [4] | Administration Site Conditions: percentage of subjects with adverse events [4] | Alanine Aminotransferase Increased: percentage of subjects with adverse events [4] | Application Site Irritation: percentage of subjects with adverse events [4] | Throat Irritation: percentage of subjects with adverse events [4] | Abdominal Discomfort: percentage of subjects with adverse events [5] | Abdominal Pain Upper: percentage of subjects with adverse events [5] | Application Site Irritation: percentage of subjects with adverse events [5] | Aspartate Aminotransferase Increased: percentage of subjects with adverse events [5] | Dizziness: percentage of subjects with adverse events [5] | Headache: percentage of subjects with adverse events [5]
25: Total Adverse Events: number of adverse events [5] | Total Adverse Events: subjects with adverse events [5]
35.7%: Total Adverse Events: percentage of subjects with adverse events [5]
34: Total Adverse Events: number of adverse events [4]
8.6%: Hypertriglyceridemia: percentage of subjects with adverse events [5]
29: Total Adverse Events: subjects with adverse events [4]
4.3%: Abdominal Discomfort: percentage of subjects with adverse events [4] | Hypertriglyceridemia: percentage of subjects with adverse events [4] | Application Site Rash: percentage of subjects with adverse events [5]
4: Total Adverse Events: number of adverse events [2] | Total Adverse Events: subjects with adverse events [2] | Upper Respiratory Tract Infection: number of adverse events [2] | Upper Respiratory Tract Infection: subjects with adverse events [2] | Abdominal Discomfort: number of adverse events [4] | Headache: subjects with adverse events [4] | Administration Site Conditions: number of adverse events [5] | Administration Site Conditions: subjects with adverse events [5]
26: Total Adverse Events: number of adverse events [3]
7.1%: Positive Fecal Occult Blood Test: percentage of subjects with adverse events [4] | Positive Fecal Occult Blood Test: percentage of subjects with adverse events [5]
3: Total Adverse Events: number of adverse events [1] | Total Adverse Events: subjects with adverse events [1] | Aspartate Aminotransferase Increased: number of adverse events [3] | Aspartate Aminotransferase Increased: subjects with adverse events [3] | Abdominal Discomfort: subjects with adverse events [4] | Hypertriglyceridemia: number of adverse events [4] | Hypertriglyceridemia: subjects with adverse events [4] | Application Site Rash: number of adverse events [5] | Application Site Rash: subjects with adverse events [5]
24: Total Adverse Events: subjects with adverse events [3]
5: Hypertriglyceridemia: subjects with adverse events [3] | Positive Fecal Occult Blood Test: subjects with adverse events [3] | Positive Fecal Occult Blood Test: subjects with adverse events [4] | Positive Fecal Occult Blood Test: number of adverse events [5] | Positive Fecal Occult Blood Test: subjects with adverse events [5]
6: Hypertriglyceridemia: number of adverse events [3] | Positive Fecal Occult Blood Test: number of adverse events [3] | Headache: number of adverse events [4] | Positive Fecal Occult Blood Test: number of adverse events [4] | Hypertriglyceridemia: number of adverse events [5] | Hypertriglyceridemia: subjects with adverse events [5]
2.8%: Gamma-Glutamyltransferase Increased: percentage of subjects with adverse events [3] | Throat Irritation: percentage of subjects with adverse events [3] | White Blood Cell Count Decreased: percentage of subjects with adverse events [3]
7.0%: Hypertriglyceridemia: percentage of subjects with adverse events [3] | Positive Fecal Occult Blood Test: percentage of subjects with adverse events [3]
41.4%: Total Adverse Events: percentage of subjects with adverse events [4]
2: Gamma-Glutamyltransferase Increased: number of adverse events [3] | Gamma-Glutamyltransferase Increased: subjects with adverse events [3] | Throat Irritation: number of adverse events [3] | Throat Irritation: subjects with adverse events [3] | White Blood Cell Count Decreased: number of adverse events [3] | White Blood Cell Count Decreased: subjects with adverse events [3] | Diarrhoea: number of adverse events [4] | Diarrhoea: subjects with adverse events [4] | Dizziness: number of adverse events [4] | Dizziness: subjects with adverse events [4] | White Blood Cell Count Decreased: number of adverse events [4] | White Blood Cell Count Decreased: subjects with adverse events [4] | Abdominal Pain Upper: number of adverse events [5]
5.7%: Total Adverse Events: percentage of subjects with adverse events [2] | Headache: percentage of subjects with adverse events [4] | Administration Site Conditions: percentage of subjects with adverse events [5]
2.9%: Diarrhoea: percentage of subjects with adverse events [4] | Dizziness: percentage of subjects with adverse events [4] | White Blood Cell Count Decreased: percentage of subjects with adverse events [4]
4.2%: Total Adverse Events: percentage of subjects with adverse events [1] | Aspartate Aminotransferase Increased: percentage of subjects with adverse events [3]
33.8%: Total Adverse Events: percentage of subjects with adverse events [3]
